Experimental data reported in patent US8507269B2, “Calcium channel proteins and uses thereof” (CalciMedica, Inc., priority 2007, dated 2013).
Like-named read-outs stand apart in the source and are kept apart here.

How the values were obtained:
[1] = molecular target: STIM1 and Orai1 in HEK293 cells (Homo sapiens, UniProt Q96D31); conditions: HEK293 cells coexpressing STIM1 and Orai1; cited from earlier work
[2] = molecular target: T1, CRAC current in olf186-F+Stim transfectants (Drosophila melanogaster, UniProt Q9U6B8); assay: Whole-cell patch-clamp of Ca2+ current in olf186-F+Stim transfected S2 cells; format: cell-based
T1 construct: A cDNA clone, pAc5.1/olf186-F, encoding full-length Drosophila olf186-F-RB, was generated for transfection into S2 cells; expressed in transfected cells; host or cells: Drosophila S2 cells (transient, Nucleofector)
T1 sequence (Q9U6B8 1-351): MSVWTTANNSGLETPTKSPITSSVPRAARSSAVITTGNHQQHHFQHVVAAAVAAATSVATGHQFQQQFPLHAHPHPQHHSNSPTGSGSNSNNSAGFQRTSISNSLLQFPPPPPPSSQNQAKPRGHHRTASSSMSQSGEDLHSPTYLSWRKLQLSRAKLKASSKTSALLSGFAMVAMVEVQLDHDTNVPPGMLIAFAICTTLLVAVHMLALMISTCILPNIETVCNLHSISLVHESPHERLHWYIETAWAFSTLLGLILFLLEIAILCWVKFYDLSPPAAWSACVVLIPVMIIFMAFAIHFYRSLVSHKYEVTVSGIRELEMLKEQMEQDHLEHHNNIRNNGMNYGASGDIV
Procedure: Whole-Cell Recording. Patch-clamp experiments were performed at room temperature in the standard whole-cell recording configuration, using a holding potential of −10 mV. […] To calculate current densities, peak current amplitudes were divided by membrane capacitance for each cell.

[3] = molecular target: T2, Orai1/STIM1 ICRAC channel (Homo sapiens, UniProt Q96D31); assay: Patch clamp (PatchXpress) of calcium currents in cells stably transfected with STIM1 and Orai1; format: cell-based
T2 construct: expressed in transfected cells
Text: Isolated, stably transfected cells were monitored with patch clamp analysis (PatchExpress) to detect calcium currents with overexpressed, stably transfected STIM1 and Orai1 nucleic acids.

[4] = tested on: endogenous SOCE in HEK-Zeo control cells; conditions: read-out: IC50 of inhibition of calcium entry, thapsigargin-mediated store depletion, readdition of external calcium
Procedure: (§1) To test whether the […] entry pathway constitutively activated by STIM1 overexpression is pharmacologically similar to endogenous SOCE, HEK[STIM1] cells are pre-incubated with increasing doses of 2-APB and STIM1-induced Ca^2+ entry is measured.

[5] = tested on: HEK[STIM1] cells (STIM1 overexpression)
Procedure: as §1

Jurkat cells = conditions: cited from earlier work
colon cancer cells = conditions: cited from earlier work
STIM1/Orai1 CRAC channel = molecular target: T3, STIM1/Orai1 CRAC channel (Homo sapiens, UniProt Q96D31); assay: FLIPR assay of Orai1/STIM1-dependent Ca2+ entry in stably transfected STIM1/Orai1 cells; format: cell-based
T3 construct: expressed in transfected cells
Procedure: Cells are plated at 30K cells/50 uL media/well in PDL-coated 384-well plate (Greiner Cell Coat; VWR cat#82051-358) 24 hours before experiment. 20 μM Fluo-4-AM (Invitrogen cat#F-14201) are prepared, resuspended with 10 μl F-127, 20% pluronic solution in DMSO (Invitrogen cat#P3000MP), and added to 2.3 mL culture medium. Cells are loaded with dye by adding 5 μl of the 20 μM Fluo-4-AM solution to each well of the 384-well plate that already contained 50 μL of culture medium. The plates are kept in dark, RT, for approximately 1 hour. HBSS/1% HEPES/0.2 g/L MgCl2 was prepared and cells transferred to a plate washer to remove dye-loading solution from cells. The cells are washed with HBSS/1% HEPES/0.2 g/L MgCl2, being careful not to dislodge the cells. The final volume of buffer left on the cells should equal 40 μL. The cell plate is transferred to FLIPR monitoring instrument (Molecular Devices, Sunnyvale, Calif.), and 10 μL compound is added and incubated for 30 minutes. Data points (1/sec) are acquired prior to the addition of CaCl2 to establish basal readings. 5 μL 11 mM CaCl2 (1.0 mM CaCl2 final) is added, and the fluorescence read every second for 1 minute, then every 10 seconds for 14 minutes. […]
RBL-2H3 cells plated in 384-well plates are loaded for 45 min with FLUO-4-AM (2 μM final concentration) in a Hanks-buffered salt solution. […] Fifteen minutes after addition of Tg, store-operated calcium entry is initiated by adding external Ca^2+ to a final concentration of 1.8 mM and the cells monitored for a further 10-15 minutes. Calcium levels are monitored throughout the assay using a FLIPR^384 (Molecular Devices fluorimetric imaging plate reader for high throughput screening).
The kinetic data from the FLIPR^384 are analyzed and stored in a relational database (ActivityBase; IDBS). Ten quantitative parameters are calculated that define various aspects of the store-operated calcium entry response. […]

Drosophila S2 cells = assay: Single-cell ratiometric fura-2 [Ca2+]i imaging of S2 cells; format: cell-based; conditions: control cells, 1 μM ionomycin in zero-Ca2+ solution, average
Procedure: RNAi in Drosophila S2 Cells. RNAi experiments were adapted from the protocols described by Worby et al. Drosophila S2 cells (0.5×10^6) were seeded in T-25 flasks in 2 ml of complete S2 medium. The next day, medium was removed and replaced with 2 ml of serum-free S2 medium. Twenty micrograms of dsRNA was added, and cells were incubated at room temperature for 45 min with gentle rocking. Four milliliters of S2 medium was added, and cells were incubated for 5 days at 24° C. Cells then were harvested and either plated for single-cell Ca^2+ imaging and patch-clamp experiments or processed for RT-PCR analysis.
Single-Cell [Ca^2+]i imaging. Ratiometric [Ca^2+]i Imaging was performed as described in ref. 3, using solution recipes described in Table 3. Transfected cells were recognized by coexpressed enhanced GFP (EGFP), using filters to avoid contamination of Fura-2 fluorescence by bleedthrough of GFP fluorescence. Data were analyzed with METAFLUOR software (Universal Imaging, Downington, Pa.) and ORIGINPRO 7.5 software (OriginLab, Northampton, Mass.) and are expressed as means ±SEM.
Effects of olf186-F Knockdown and Overexpression on Ca^2+ Influx and CRAC Currents in Single Cells. […]

T3 sequence (Q96D31 whole entry): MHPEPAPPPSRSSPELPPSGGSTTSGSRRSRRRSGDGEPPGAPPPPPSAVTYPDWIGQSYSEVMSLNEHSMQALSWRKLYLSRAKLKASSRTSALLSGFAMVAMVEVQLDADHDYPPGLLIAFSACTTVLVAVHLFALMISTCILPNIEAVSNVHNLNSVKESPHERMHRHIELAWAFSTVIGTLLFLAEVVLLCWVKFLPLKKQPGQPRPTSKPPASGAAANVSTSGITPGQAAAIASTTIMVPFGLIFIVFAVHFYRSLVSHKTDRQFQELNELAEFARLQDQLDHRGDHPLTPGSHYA
T2 sequence (Q96D31 whole entry): as above
Sequence of STIM1 and Orai1 in HEK293 cells (Q96D31 whole entry): as above

In the case of `NCCOB(c1ccccc1)c1ccccc1` [2-APB, 2-aminoethoxydiphenyl borate], the “store-operated Ca2+ entry” value [1] is listed as “completely blocked”, the “effect on enhanced Ca2+ currents” value ([2]; 5 μM) is listed as “potentiation of current before blocking” and the “effect on enhanced Ca2+ currents” value ([2]; 20 μM) is listed as “blocked”. For the same compound, the “effect on CRAC channel currents (FIG. 8)” value [3] was “potentiation”, the IC50 [4] was 11.8 µM and the “calcium entry at lower concentrations” value ([5]; absence of store depletion, lower concentrations) was “potentiated”. The IC50 ([5]; read-out: IC50 of inhibition of calcium entry, thapsigargin-mediated store depletion, readdition of external calcium) was 10.5 µM and the IC50 ([5]; read-out: IC50 of inhibition of constitutive calcium entry, absence of store depletion) was 10.8 µM.

In the case of `Cc1nnsc1C(=O)Nc1ccc(-n2nc(C(F)(F)F)cc2C(F)(F)F)cc1` [BTP-2], the SOCE (Jurkat cells) is listed as “inhibits”, the proliferation (Jurkat cells) is listed as “inhibits” and the SOCE (colon cancer cells) is listed as “inhibits”. The proliferation (colon cancer cells) was “inhibits”.

In the case of `O=C(Nc1scc(-c2ccc(Br)cc2)c1C(=O)O)c1cccc(F)c1` [Cmpd B], the “CRAC-channel mediated Ca2+ entry” value (STIM1/Orai1 CRAC channel) is reported as “inhibit” and the IC50 (STIM1/Orai1 CRAC channel; read-out: IC50 (inhibition of calcium inflow)) is reported as 1.9 µM.

With `[Gd+3]` [Gd^3+] the “effect on enhanced Ca2+ currents” value ([2]; 50 nM) was “blocked”.

In the case of `O=C(Nc1scc(-c2ccc(Br)cc2)c1C(=O)O)c1ccc(F)cc1` [compound A], the “CRAC-channel mediated Ca2+ entry” value (STIM1/Orai1 CRAC channel) is reported as “inhibit”.

In the case of `C[C@H](CCC(=O)O)C[C@H](C)C[C@H](C)C(=O)/C=C(\O)[C@H](C)C[C@H](C)C/C=C/[C@@H](C)[C@@H](O)[C@@H](C)[C@@H](O)C[C@@H]1CC[C@@](C)([C@H]2CC[C@@](C)([C@@H](C)O)O2)O1` [ionomycin], the “peak of Ca2+ release transient” value (Drosophila S2 cells) is reported as 200 nM.
